Values quoted from earlier work as cited in patent US20080221116A1, “ISOXAZOLINE ALPHA 1a/1d ADRENORECEPTOR ANTAGONISTS” (priority 2006, published 2008).

What was measured:
[1] = as described in the article; cited from earlier work
D2 = D2 (Homo sapiens, UniProt P14416); conditions: as described in the article; cited from earlier work
5-HT1A site = biological target: T1, 5-HT1A site (Homo sapiens, UniProt P08908); conditions: as described in the article; cited from earlier work
T1 sequence (P08908 1-422): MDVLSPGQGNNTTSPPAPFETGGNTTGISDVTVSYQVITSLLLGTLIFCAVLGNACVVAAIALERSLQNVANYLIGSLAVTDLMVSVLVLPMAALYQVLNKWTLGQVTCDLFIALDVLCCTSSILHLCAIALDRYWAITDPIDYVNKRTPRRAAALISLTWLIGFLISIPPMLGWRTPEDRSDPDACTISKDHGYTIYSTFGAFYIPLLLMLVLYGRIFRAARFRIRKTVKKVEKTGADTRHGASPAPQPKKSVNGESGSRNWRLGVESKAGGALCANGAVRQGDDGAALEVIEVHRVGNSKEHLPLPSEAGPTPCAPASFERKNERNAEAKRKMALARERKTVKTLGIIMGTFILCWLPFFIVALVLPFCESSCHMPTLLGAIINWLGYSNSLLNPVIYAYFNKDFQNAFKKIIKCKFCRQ

Chain of D2 (P14416 whole entry): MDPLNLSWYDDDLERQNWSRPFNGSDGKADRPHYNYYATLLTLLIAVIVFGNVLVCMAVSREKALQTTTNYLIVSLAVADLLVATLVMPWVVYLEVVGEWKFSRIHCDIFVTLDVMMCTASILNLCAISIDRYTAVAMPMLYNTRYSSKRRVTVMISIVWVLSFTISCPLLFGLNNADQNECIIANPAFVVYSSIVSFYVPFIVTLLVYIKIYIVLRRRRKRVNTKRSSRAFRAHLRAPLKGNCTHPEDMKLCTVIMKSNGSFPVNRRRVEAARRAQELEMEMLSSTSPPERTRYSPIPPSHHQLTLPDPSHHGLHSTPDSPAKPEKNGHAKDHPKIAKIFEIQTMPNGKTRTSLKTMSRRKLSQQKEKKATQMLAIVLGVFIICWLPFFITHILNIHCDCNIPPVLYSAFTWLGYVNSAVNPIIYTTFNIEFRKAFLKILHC

| SMILES | Conditioned Avoidance Response (CAR) activity [1] | D2 binding (D2) | binding affinity for the 5-HT1A site (5-HT1A site) |
| --- | --- | --- | --- |
| CC(C)Oc1ccccc1N1CCN(CC2CC(CO)=NO2)CC1 (centres unmarked) [compound 49, 4,5-dihydro-5-[[4-[2-(1-methylethoxy)phenyl]-1-piperazinyl]methyl]-3-isoxazolemethanol] | strong | lack | lack |
| CC(C)Oc1ccccc1N1CCN(CC2CC(CN3CCCCC3=O)=NO2)CC1.O.[O-][Cl+3]([O-])([O-])O (centres unmarked) [compound 50, 1-[[4,5-dihydro-5-[[4-[2-(1-methylethoxy)phenyl]-1-piperazinyl]methyl]-3-isoxazolyl]methyl]-piperidin-2-one perchlorate hydrate] | not so active |  | moderately high |
